Reference: paper PMC11209699 (ACS Omega, 2024)
Where “and” joins values, the source holds several entries; their conditions need not be identical. Equal values may be shown once.

Key:
[1] = system: H929 cells; assay: CCK-8 cell viability; type: cell-based; settings: Homo sapiens, NCI-H929, 48 h, read-out: cytotoxicity (IC50) H929
[2] = CCK-8 cell viability; type: cell-based; settings: human, HEK293T cells
[3] = system: HeLa cells; assay: CCK-8 cell viability; type: cell-based; settings: Homo sapiens, 48 h, read-out: cytotoxicity (IC50) HeLa
[4] = system: HL-60 cells; assay: CCK-8 cell viability; type: cell-based; settings: Homo sapiens, HL-60, 48 h, read-out: cytotoxicity (IC50) HL-60
[5] = system: RS4;11 cells; assay: CCK-8 cell viability; type: cell-based; settings: Homo sapiens, RS4-11, 48 h, read-out: cytotoxicity (IC50) RS4;11
[6] = system: MV-4–11 cells; assay: CCK-8 cell viability; type: cell-based; settings: Homo sapiens, MV4-11, 48 h, read-out: cytotoxicity (IC50) MV-4–11
[7] = molecular target: BCL-xL (Homo sapiens, UniProt Q07817); assay: fluorescence polarization; settings: FP assay, tested up to 100 μM
[8] = system: MV-4–11 cells; assay: kinetics study in cells; type: in vitro ADME; settings: GQN-B37-Me given to MV-4–11 cells at 40 μM, monitored over 8 h
[9] = molecular target: BCL-2 (Homo sapiens, UniProt P10415); assay: fluorescence polarization; settings: FP assay
[10] = molecular target: MCL-1 (Homo sapiens, UniProt Q07820); assay: fluorescence polarization
[11] = system: PARP and caspase-3 in H929 cells; assay: Western blot of PARP and caspase-3 cleavage; type: cell-based; settings: 5 to 40 μM, 24 h
[12] = stability in GSH; type: in vitro ADME; settings: exposure to GSH for up to 2 h
[13] = stability in liver microsomes; type: in vitro ADME; settings: monkey, pooled monkey liver microsomes
[14] = stability in liver microsomes; type: in vitro ADME; settings: rat, pooled rat liver microsomes
[15] = stability in liver microsomes; type: in vitro ADME; settings: human
[16] = system: MV-4–11 xenograft mice; assay: in vivo antitumor study, MV-4–11 xenograft mouse model; settings: for effect on body weight after 20 days (in words): 90% confidence level vs vehicle
[17] = system: MV-4–11 cells; assay: annexin V and PI double-staining flow cytometry; type: cell-based; settings: doses ranging from 1 to 40 μM, 24 h
[18] = stability in liver microsomes; type: in vitro ADME; settings: dog, pooled dog liver microsomes
[19] = molecular target: MCL-1/BIM interaction in H929 cells (Homo sapiens, UniProt Q07820); assay: coimmunoprecipitation; type: cell-based; settings: 10 μM, 10 h
[20] = system: MV-4–11 xenograft mice; type: in vivo, mouse; settings: after 20 days treatment

Sequence of MCL-1 (Q07820 152-327): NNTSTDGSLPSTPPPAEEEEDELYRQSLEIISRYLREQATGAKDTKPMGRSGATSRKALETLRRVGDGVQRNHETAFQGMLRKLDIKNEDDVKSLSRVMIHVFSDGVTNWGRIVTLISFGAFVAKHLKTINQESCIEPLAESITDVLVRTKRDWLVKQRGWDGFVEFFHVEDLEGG
Sequence of BCL-2 (P10415 1-207): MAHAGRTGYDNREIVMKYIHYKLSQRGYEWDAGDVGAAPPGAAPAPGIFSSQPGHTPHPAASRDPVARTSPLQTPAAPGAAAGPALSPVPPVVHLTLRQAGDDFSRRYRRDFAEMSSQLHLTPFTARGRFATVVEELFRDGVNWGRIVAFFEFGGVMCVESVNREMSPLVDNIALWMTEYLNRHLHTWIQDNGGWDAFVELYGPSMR
Sequence of BCL-xL (Q07817 45-233): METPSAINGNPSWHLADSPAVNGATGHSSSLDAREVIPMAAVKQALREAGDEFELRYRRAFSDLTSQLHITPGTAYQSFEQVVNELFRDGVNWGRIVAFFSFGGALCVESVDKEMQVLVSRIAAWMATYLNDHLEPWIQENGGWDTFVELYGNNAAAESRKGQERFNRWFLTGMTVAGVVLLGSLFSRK
Sequence of MCL-1/BIM interaction in H929 cells (Q07820 whole entry): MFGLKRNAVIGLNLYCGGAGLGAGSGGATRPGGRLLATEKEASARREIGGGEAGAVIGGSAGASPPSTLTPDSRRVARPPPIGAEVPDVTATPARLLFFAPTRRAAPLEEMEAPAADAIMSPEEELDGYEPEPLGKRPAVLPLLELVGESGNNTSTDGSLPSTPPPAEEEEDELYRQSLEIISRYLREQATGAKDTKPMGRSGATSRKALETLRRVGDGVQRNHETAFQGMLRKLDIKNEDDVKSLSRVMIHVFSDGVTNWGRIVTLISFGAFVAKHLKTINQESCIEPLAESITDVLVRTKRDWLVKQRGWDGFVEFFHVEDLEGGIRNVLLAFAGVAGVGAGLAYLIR

SMILES | IC50 [1] | IC50 at 48 h [2] | IC50 [3] | IC50 [4] | IC50 [5] | IC50 [6] | also measured
Nc1ccc(-c2nn(-c3cccc(Cl)c3)cc2/C=C/C(=O)N[C@@H](Cc2c[nH]c3ccccc23)C(=O)O)cc1 [GQN-B35-E, (E)-(3-(3-(4-Aminophenyl)-1-(3-chlorophenyl)-1H-pyrazol-4-yl)acryloyl)-L-tryptophan] | > 50 µM | > 20 µM | > 50 µM | > 50 µM | > 50 µM | > 50 µM | –
COC(=O)[C@H](Cc1c[nH]c2ccccc12)NC(=O)/C=C/c1cn(-c2cccc(Cl)c2)nc1-c1ccc(N)cc1 [GQN-B35-Me, Methyl-(E)-(3-(3-(4-aminophenyl)-1-(3-chlorophenyl)-1H-pyrazol-4-yl)acryloyl)-L-tryptophanate] | 3.89 ± 0.07 µM | > 20 µM | > 50 µM | > 20 µM | > 20 µM | 20.52 ± 0.12 µM | –
O=C(/C=C/c1cn(-c2cccc(Cl)c2)nc1-c1ccc(N2CCOCC2)cc1)N[C@@H](Cc1c[nH]c2ccccc12)C(=O)O [GQN-B36-E, (E)-(3-(1-(3-Chlorophenyl)-3-(4-morpholinophenyl)-1H-pyrazol-4-yl)acryloyl)-L-tryptophan] | > 50 µM | > 20 µM | > 50 µM | > 50 µM | > 50 µM | > 50 µM | –
COC(=O)[C@H](Cc1c[nH]c2ccccc12)NC(=O)/C=C/c1cn(-c2cccc(Cl)c2)nc1-c1ccc(N2CCOCC2)cc1 [GQN-B36-Me, Methyl-(E)-(3-(1-(3-chlorophenyl)-3-(4-morpholinophenyl)-1H-pyrazol-4-yl)acryloyl)-L-tryptophanate] | > 20 µM | > 20 µM | > 50 µM | > 20 µM | > 20 µM | > 20 µM | –
O=C(/C=C/c1cn(-c2cccc(Cl)c2)nc1-c1ccc(O)cc1)N[C@@H](Cc1c[nH]c2ccccc12)C(=O)O [GQN-B37-E, (E)-(3-(1-(3-Chlorophenyl)-3-(4-hydroxyphenyl)-1H-pyrazol-4-yl)acryloyl)-L-tryptophan] | > 50 µM | > 20 µM | > 50 µM | > 50 µM | > 50 µM | > 50 µM | binding to BCL-XL (in words) [7]: without apparent binding; time at which intracellular GQN-B37-E reached a peak [8]: 3 h; binding to BCL-2 (in words) ([9]; tested up to 100 μM): without apparent binding; ligand efficiency (LE) ([10]; binding energy divided by the number of heavy atoms, MCL-1): 0.22 kcal/mol
COC(=O)[C@H](Cc1c[nH]c2ccccc12)NC(=O)/C=C/c1cn(-c2cccc(Cl)c2)nc1-c1ccc(O)cc1 [GQN-B37-Me, Methyl-(E)-(3-(1-(3-chlorophenyl)-3-(4-hydroxyphenyl)-1H-pyrazol-4-yl)acryloyl)-L-tryptophanate] | 3.71 ± 0.33 µM | > 20 µM | > 20 µM | > 20 µM | 15.9 ± 0.98 µM | 5.57 ± 0.09 µM | cleavage of full-length PARP (116 to 89 kDa) [11]: dose-dependent cleavage; stability following incubation with GSH (in words) [12]: basically intact; half-life at 1.4 μM [13]: 0.58 h; half-life at 1.4 μM [14]: 1.92 h; half-life at 1.4 μM [15]: 0.77 h; tumor growth inhibition on day 20 ([16]; 12.5 mg/kg i.p. every 2 days for 20 days): 30%; effect on body weight after 20 days (in words) ([16]; 12.5 mg/kg i.p. every 2 days): did not cause significant body weight loss; tumor growth inhibition on day 20 ([16]; 50 mg/kg i.p. every 2 days for 20 days): 43%; effect on body weight after 20 days (in words) ([16]; 50 mg/kg i.p. every 2 days): affected body weight; induction of late apoptosis (in words) [17]: induced late apoptosis in a clear dose-dependent manner; half-life at 1.4 μM [18]: 1.93 h; disruption of the MCL-1/BIM interaction [19]: disrupts the MCL-1/BIM interaction considerably; binding to MCL-1 (in words) ([10]; FP assay, tested up to 100 μM): complete loss of binding; lesions in liver, kidney and heart (HE staining) ([20]; 12.5 and 50 mg/kg): no evidence of lesions; necrosis of tumor tissues (HE staining) ([20]; 12.5 and 50 mg/kg): dose-dependent necrosis of tumor tissues; level of proliferation in tumor tissues (Ki-67) ([20]; compared to the blank group): significantly reduced
O=C(/C=C\c1cn(-c2ccccc2)nc1-c1ccc2ccccc2c1)Nc1ccc(C(=O)O)cc1 [LC126, (Z)-4-(3-(3-(Naphthalen-2-yl)-1-phenyl-1H-pyrazol-4-yl)acrylamido)benzoic Acid] | – | – | – | – | – | – | Ki ([9]; Ki for BCL-2 (text and Figure 2)): 10 µM and ~10 µM; Ki ([10]; Ki for MCL-1 (text and Figure 2), FP assay): 13 µM and ~10 µM
